One series has as its system DU-145 (prostate) cells. Kind of series: MTT reduction assay, DU-145 cells. It counts as cell-based. The settings on record: Homo sapiens, DU-145, 48 h, read-out: IC50 ± SEM DU-145. Here is the method:
(§1) As positive control, two well-known anticancer drugs, namely TAM and 5-FU, were also tested on these cell lines. […] Regarding 5-FU, it is a broad-spectrum chemotherapeutic drug used to treat a variety of malignancies. Particularly, it has a long history of use against bladder tumors.
(§2) Cell culture conditions were the same as reported elsewhere. Briefly, cell lines were kept in DMEM containing 10% fetal calf serum. In addition, 100 U/mL of penicillin and 100 µg/mL streptomycin from Gibco (Grand Island, NY, USA) were further added. Cell cultures were kept at 37 °C under an atmosphere of 95% air/5% CO2 and 100% humidity. Sodium L-ascorbate, menadione (vitamin K3), TAM, and 5-FU were purchased from Sigma (St. Louis, MO, USA).
(§3) The cytotoxicity of the quinones was assessed by following the reduction of MTT (3-(4,5-dimethylthiazol-2-yl)-2,5-diphenyltetrazolium bromide) to formazan blue and the capability of cancer cells to proliferate, namely a clonogenic assay.
(§4) Cells were seeded into 96-well plates at a density of 10,000 cells/well for 24 h and then incubated for 48 h with or without the quinone derivatives. […] The IC50 values were determined using the GraphPad Prism software (San Diego, CA, USA). Further incubation procedures and optical density reading of colored solutions were performed according to Benites et al..
(Formazan colour is commonly taken as a measure of viable cells.)

In the next series the test system is MCF-7 (breast) cells. The series is described as follows: MTT reduction assay, MCF-7 cells. It counts as cell-based. The settings on record: Homo sapiens, MCF7, 48 h incubation, read-out: IC50 ± SEM MCF-7. On the procedure:
as §1, §2, §3, §4

The test system of series [1] is panel of cancer cells (T24, DU-145, MCF-7). Kind of series: MTT reduction assay, panel of cancer cells (means, ranges, selectivity index). The settings on record: IC50 values of fibroblasts (AG 1523)/IC50 values of tumor cells (T24, DU-145, MCF-7). Type of series: cell-based, human. On the procedure: as §1
Such a selective index was calculated as the ratio between IC50 values of healthy cells/IC50 values in cancer cells.
as §4

The next series concerns T24 (bladder) cells. The series is described as follows: MTT reduction assay, T24 cells. It counts as cell-based. The conditions noted are these: Homo sapiens, T-24, 48 h incubation, read-out: IC50 ± SEM T24. Here is the method: as §1, §2, §3, §4
In series [2] the test system is non-tumor fibroblasts AG 1523. Kind of series: MTT reduction assay, non-tumor fibroblasts. Type of series: cell-based. The conditions noted are these: Homo sapiens, AG1523, 48 h incubation, read-out: IC50 ± SEM AG 1523. Here is the method: as §1, §2, §3, §4
A further series deals with Hsp90. The series is described as follows: Immunoblot of Hsp90 protein integrity in T24 cells. It counts as cell-based, human. The settings on record: 5 µM quinone plus 1 mM ascorbate, 4 h. On the procedure: Nevertheless, when incubation was done in the presence of 1 mM ascorbate (vitamin C) plus quinones (including menadione), a new peptide fragment of about 70 kD was detected by the antibody against Hsp90.
Figure 1 Effects of selected quinones of Hsp90 (A) and poly(ADPribose)polymerase (PARP) (B) protein integrity in T24 cells. Cancer cells were incubated for 4 h with 5 µM menadione (K3), 15, 16, 19, or 20 either in the absence or in the presence of 1 mM ascorbate (Asc). Ctl represents control untreated cells. * p < 0.05 as compared to control conditions.
Cancer cells were incubated for 4 h in the absence and in the presence of compounds. Afterward, cells were washed twice with ice-cold PBS and then resuspended in RIPA lysis buffer supplemented with 1% protease inhibitor cocktail (Sigma–Aldrich, St. Louis, MO, USA) and 3% phosphatase inhibitor cocktail (Calbiochem, Darmstadt, Germany). Treatment of samples and electrophoresis conditions were conducted as previously reported. Mouse monoclonal primary antibodies against hsp90α/β C-terminus (F8), and against β-actin (clone AC-15), were purchased from Santa Cruz Biotechnology (Santa Cruz, CA, USA) and from Abcam (Cambridge, UK), respectively. Rabbit polyclonal antibodies against PARP were purchased from BD Biosciences (San Diego, CA, USA). […]
A general note: In western blotting, separated proteins are transferred to a membrane and probed.

Series [3] has as its system poly(ADPribose)polymerase (PARP). The series is described as follows: Immunoblot of PARP protein integrity in T24 cells. The conditions noted are these: 5 µM, 4 h, regardless of the presence of ascorbate (1 mM). Type of series: cell-based, human. On the procedure:
Figure 1 Effects of selected quinones of Hsp90 (A) and poly(ADPribose)polymerase (PARP) (B) protein integrity in T24 cells. […] Ctl represents control untreated cells. * p < 0.05 as compared to control conditions. […] This was the case regardless of the presence of ascorbate (1 mM). The obtained results make a potential role of apoptosis unlikely to be the underlying mechanism of cell impairment induced by quinones, including menadione. Indeed, PARP is a substrate of caspase-3, therefore, when an apoptosis process is triggered, it is expected that PARP protein will be cleaved yielding a second protein band also recognized by the anti-PARP antibody. Cancer cells were incubated for 4 h in the absence and in the presence of compounds. Afterward, cells were washed twice with ice-cold PBS and then resuspended in RIPA lysis buffer supplemented with 1% protease inhibitor cocktail (Sigma–Aldrich, St. Louis, MO, USA) and 3% phosphatase inhibitor cocktail (Calbiochem, Darmstadt, Germany). Treatment of samples and electrophoresis conditions were conducted as previously reported. Mouse monoclonal primary antibodies against hsp90α/β C-terminus (F8), and against β-actin (clone AC-15), were purchased from Santa Cruz Biotechnology (Santa Cruz, CA, USA) and from Abcam (Cambridge, UK), respectively. Rabbit polyclonal antibodies against PARP were purchased from BD Biosciences (San Diego, CA, USA). […]

The values that follow come from paper PMC7071032, “In Vitro Inhibition of Hsp90 Protein by Benzothiazoloquinazolinequinones Is Enhanced in The Presence of Ascorbate. A Preliminary In Vivo Antiproliferative Study” (Molecules, 2020).

What is called IC50 is the point on the concentration scale where inhibition reaches its midpoint. Broadly, the melting point is the temperature, or range, at which the solid turns liquid.

Turning to `CCCCCC1(O)C2=C(N=C3Sc4cc(C)ccc4N31)C(=O)c1ccccc1C2=O` (centres unmarked) [Compound 17], the melting point was in the range of 129 to 129.5 °C. For the same molecule, in the series with DU-145 (prostate) cells, the concentration for half-maximal inhibition (IC50) was 8.46 ± 0.31 µM. Also, the IC50 with MCF-7 (breast) cells was 5.26 ± 0.22 µM. In series [1], the “MSI: mean selective index” value is recorded as 1.09. In addition, the half-inhibitory concentration (IC50) in the series on T24 (bladder) cells was determined as 6.86 ± 0.33 µM. In series [2], the IC50 worked out at 7.5 ± 0.69 µM.

In the case of `CC1=CC(=O)c2ccccc2C1=O` [menadione, reference compound], the Hsp90 protein cleavage result in the series on Hsp90 is “strong Hsp90 cleavage”. Further, the PARP cleavage result in series [3] is “neither the quinone derivatives nor menadione induced a detectable PARP cleavage”.
